Experimental data reported in patent US20120065187A1 (ALCON RESEARCH, LTD, priority 2008, published 2012).
pEC50: −log10 of the molar value.

What was measured:
human H4 = target: T1, human H4 (Homo sapiens, UniProt Q9H3N8); assay: In vitro histamine receptor cell-based assay (aequorin bioluminescence), H4 antagonism; settings: CHO-K1 cells expressing human H4, aequorin and Gα16; histamine at EC80; read-out: H4 Antagonist EC50
T1 construct: host or cells: CHO-K1
Method in brief: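 CHO-K1 cells stably expressing human H4, Gα16 and mitochondrial aequorin, loaded with 5 μM coelenterazine-h, preincubated 15 min at room temperature with compound, then challenged with histamine at EC80.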

human H1 = target: T2, human H1 (Homo sapiens, UniProt P35367); assay: In vitro histamine receptor cell-based assay (aequorin bioluminescence), H1 antagonism; settings: CHO-K1 cells expressing human H1 and aequorin; histamine at EC80; read-out: H1 Antagonist EC50
T2 construct: host or cells: CHO-K1
T2 sequence (P35367 whole entry): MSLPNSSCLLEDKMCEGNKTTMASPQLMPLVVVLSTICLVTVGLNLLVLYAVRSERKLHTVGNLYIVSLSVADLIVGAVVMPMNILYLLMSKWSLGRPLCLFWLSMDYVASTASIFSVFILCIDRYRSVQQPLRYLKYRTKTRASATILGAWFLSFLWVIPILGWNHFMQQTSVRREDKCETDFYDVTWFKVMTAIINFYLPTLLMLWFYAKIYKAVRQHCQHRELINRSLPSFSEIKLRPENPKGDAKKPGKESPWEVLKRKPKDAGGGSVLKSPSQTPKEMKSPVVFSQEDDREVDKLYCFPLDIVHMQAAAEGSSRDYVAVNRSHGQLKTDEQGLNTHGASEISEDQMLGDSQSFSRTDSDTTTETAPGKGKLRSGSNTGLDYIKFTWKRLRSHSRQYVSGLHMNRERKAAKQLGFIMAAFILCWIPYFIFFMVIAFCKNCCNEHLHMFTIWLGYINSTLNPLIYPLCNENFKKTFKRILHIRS
Method in brief: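 Stable CHO-K1 lines expressing human H1 or H4 (H4 with Gα16) plus mitochondrial aequorin, loaded 4 h with 5 μM coelenterazine-h at ~21 °C. Compounds preincubated 15 min, then histamine at EC80 added; bioluminescence decrease (AUC or max–min) expressed as % of positive control (diphenhydramine for H1, JNJ7777120 for H4, 10 μM).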

[1] = tested on: Hartley VAF outbred guinea pigs; assay: Allergic conjunctivitis in passively sensitized guinea pigs (conjunctival EPO activity); assay type: in vivo; design: key: +: a ≦0.1% qd dose was statistically equivalent to dexamethasone with respect to reduction of EPO activity; −: the compound was statistically inferior to dexamethasone and not different than vehicle; settings: ≦0.1% qd topical, 1 hour prior to ovalbumin challenge; reduction of conjunctival EPO activity vs dexamethasone
Experimental: (§1) Male Hartley VAF outbred guinea pigs were passively sensitized to ovalbumin by a single OD subconjunctival injection of undiluted guinea pig anti-ovalbumin antiserum 24 hours before OD topical challenge with 500 μg ovalbumin in saline. Control animals were injected with saline only and challenged with ovalbumin. To determine acute phase drug efficacy, 30 min after challenge animals were clinically scored by a masked observer for severity of signs of conjunctivitis based on a standard scale. Test compounds were administered topically 1 hour prior to challenge (QD protocol), or 1 hour prior to challenge and again 8 hours after challenge (BID protocol). Twenty-four hours after challenge, animals were euthanized and conjunctivae were harvested for determination of tissue eosinophil peroxidase (EPO) concentration as a marker of allergic inflammation. Homogenates of freshly collected tissues were prepared by shaking the tissues in 2 mL round-bottom tubes containing 0.5 mL of homogenization buffer (50 mM Tris HCl, pH 8.0, 6 mM KBr) and one 5-mm stainless steel bead on a Qiagen TissueLyser at 30 Hz for 5 min. Homogenates were frozen and thawed once, then centrifuged at 10,000 rpm for 5 min. EPO activity in supernatants was measured by reacting diluted homogenates with a solution of 6 mM o-phenylenediamine substrate and 8.8 mM H2O2 in homogenization buffer for 3 min. The reaction was stopped with 4M H2SO4 and absorbances were measured at […] on a spectrophotometric plate reader. Total EPO in samples was calculated from a standard curve of recombinant human EPO in each assay. EPO activity was normalized to total protein concentration (Pierce BCA assay) in supernatants. Background EPO activity was determined from the unsensitized, antigen-challenged control group. Percent inhibition was calculated from the sensitized, antigen-challenged, vehicle-treated control group in each experiment. Ovalbumin-injected animals dosed topically with 0.1% w/v dexamethasone (dex) served as positive control. Groups were compared by ANOVA with Dunnett's or Tukey's post-hoc tests where appropriate with significance assigned at the 95% confidence level.
(§2) The table below summarizes the results.

[2] = tested on: Hartley VAF outbred guinea pigs; assay: as above; assay type: in vivo; design: key: +: a 0.01% bid dose was statistically equivalent to dexamethasone with respect to reduction of EPO activity; −: the compound was statistically inferior to dexamethasone and not different than vehicle; settings: 0.01% bid topical, 1 hour prior to and 8 hours after ovalbumin challenge; reduction of conjunctival EPO activity vs dexamethasone
Experimental: as §1, §2

CD-1 mice = assay: Model of scratching induced by histamine in CD-1 mice (assessment of H4 antagonism); assay type: in vivo; settings: 30 mg/kg oral gavage 30 min before i.d. histamine; bouts counted for 20 minutes; female CD-1 mice
Experimental: Assessment of H4 Antagonism—Model of Scratching Induced by Histamine in CD-1 mice.
Female CD-1 mice (Charles River, Hollister, Calif.), approximately 10 weeks old were housed under controlled conditions (12 h light: 12 h dark, 21° C.) and allowed ad libitum access to food (Purina LabDiet 5P14) and water. Animals were deprived of access to food and water for 1 hour during the experimental itch protocol. All studies were performed under the guidelines of the Institutional Animal Care and Use Committee of Kalypsys, Inc.
At least 24 hours prior to study initiation, the hair on the rostral dorsum of the animal was clipped to clear a location for intradermal (i.d.) injection of pruritogen (histamine, dissolved in Dulbecco's PBS [pH 7.4] at a concentration of 10 μmol per 20 μL). Animals were dosed by oral gavage with vehicle (9/0.5/0.5/90 PEG-400/Tween-80/PVP-K30/1% carboxymethylcellulose in water) or test compounds (formulated as suspensions in vehicle) at 30 mg/kg in 200 μL by means of a 20 gauge 1.5″ feeding needle affixed to a 1 mL syringe. There were 8 mice per study group. Thirty minutes after oral dosing, animals were injected i.d. with 20 μL of histamine. Immediately afterward animals were placed into individual sections of a standard acrylic cage for observation, which was recorded digitally for a 20 minute period by video cameras (Panasonic SDR-S70/PC) for later review.
Quantitation of induced itch was measured as described previously (Bell, J. K. et al., British Journal of Pharmacology, 142:374-380, 2004) by counting the number of scratching bouts per animal in the 20 minute period after i.d. injection. A scratching bout was defined as three rapid scratch movements of the hind paw in the area of the injection site. Activity with the fore paws was deemed to be grooming and not scratching, and thus was not counted. All data were analyzed using GraphPad Prism (San Diego, Calif.) software, and reported as mean percentage reduction in scratching bouts versus vehicle control. The significance of antagonist effect on agonist-induced itching was analyzed using the nonparametric Mann-Whitney test with P values <0.05 being designated as statistically significant.
Data reported as NT refers to the example having been not tested. It is expected that these compounds when tested will be active and will have utility similar to those that have been tested. In Table 2 below, entries with superscript “1” are statistically significant according to the criteria outlined in the protocol above. Entries with superscript “2” are examples that have been tested on two separate days and the results reported below are the mean of the two experiments

| SMILES | pEC50 (human H4) | pEC50 (human H1) | QD activity [1] | BID activity [2] | Scratching Bouts (% change from vehicle control) (CD-1 mice) |
| --- | --- | --- | --- | --- | --- |
| Clc1ccc2nc(N3CCNCC3)c3nnnn3c2c1 [Example 19, 8-Chloro-4-(piperazin-1-yl)tetrazolo[1,5-a]quinoxaline] | > 5.00 | < 5.00 | + | + |  |
| CN1CCN(c2nc3ccc(Cl)cc3n3nnnc23)CC1 [Example 20, 8-Chloro-4-(4-methylpiperazin-1-yl)tetrazolo[1,5-a]quinoxaline] | > 5.00 | < 5.00 |  | − | −1% |
| FC(F)(F)c1ccc2nc(N3CCNCC3)c3nncn3c2c1 [Example 24, 4-(piperazin-1-yl)-8-(trifluoromethyl)-[1,2,4]triazolo[4,3-a]quinoxaline] | > 5.00 | < 5.00 | + |  |  |
| FC(F)(F)c1cc2c(cc1Cl)nc(N1CCNCC1)c1nncn12 [Example 45, 7-Chloro-4-(piperazin-1-yl)-8-(trifluoromethyl)-[1,2,4]triazolo[4,3-a]quinoxaline] | > 5.00 | < 5.00 | + |  |  |
| Cc1nc2c3cc(Cl)ccc3nc(N3CCNCC3)n2n1 [Example 112, 9-Chloro-2-methyl-5-(piperazin-1-yl)-[1,2,4]triazolo[1,5-c]quinazoline] | > 5.00 | < 5.00 |  |  | −73^1% |
| Cc1nc2c3cc(Cl)ccc3nc(N3CCN(C)CC3)n2n1 [Example 113, 9-chloro-2-methyl-5-(4-methylpiperazin-1-yl)-[1,2,4]triazolo[1,5-c]quinazoline] | > 5.00 | < 5.00 |  | − | −66^1,2% |
| Cc1nc2c3c(F)c(C(F)(F)F)ccc3nc(N3CCN(C)CC3)n2n1.Cl [Example 126, 10-fluoro-2-methyl-5-(4-methylpiperazin-1-yl)-9-(trifluoromethyl)-[1,2,4]triazolo[1,5-c]quinazoline hydrochloride] | > 5.00 | < 5.00 | + |  |  |
| Cc1nc2c(N3CCN(C)CC3)nc3ccc(Cl)cc3n2n1 [Example 165, 8-chloro-2-methyl-4-(4-methylpiperazin-1-yl)-[1,2,4]triazolo[1,5-a]quinoxaline] | > 5.00 | > 5.00 | + | + |  |

Now from value to compound, other results behind:

| pEC50 (human H4) | pEC50 (human H1) | SMILES | QD activity [1] | BID activity [2] | Scratching Bouts (% change from vehicle control) (CD-1 mice) |
| --- | --- | --- | --- | --- | --- |
| > 5.00 | < 5.00 | Cl.FC(F)(F)c1ccc2nc(N3CCNCC3)c3nnnn3c2c1 [Example 29, 4-(piperazin-1-yl)-8-(trifluoromethyl)tetrazolo[1,5-a]quinoxaline hydrochloride] | + | + |  |
| > 5.00 | < 5.00 | Cc1nc2c3cc(C(F)(F)F)ccc3nc(N3CCN(C)CC3)n2n1 [Example 103, 2-Methyl-5-(4-methylpiperazin-1-yl)-9-(trifluoromethyl)-[1,2,4]triazolo[1,5-c]quinazoline] | + |  | −37% |
| > 5.00 | < 5.00 | Cc1nc2c3cc(C(F)(F)F)cc(F)c3nc(N3CCN(C)CC3)n2n1.Cl [Example 127, 7-fluoro-2-methyl-5-(4-methylpiperazin-1-yl)-9-(trifluoromethyl)-[1,2,4]triazolo[1,5-c]quinazoline hydrochloride] | + |  |  |
| > 5.00 | < 5.00 | CN1CCN(c2nc3ccc(Cl)cc3c3c[nH]nc23)CC1 [Example 152, 8-Chloro-4-(4-methylpiperazin-1-yl)-2H-pyrazolo[3,4-c]quinoline] |  | − | −13% |
| > 5.00 | < 5.00 | CN1CCN(c2nc3ccc(Cl)cc3c3conc23)CC1 [Example 166, 8-Chloro-4-(4-methylpiperazin-1-yl)isoxazolo[3,4-c]quinoline] | + | + |  |
